Each structure is given as a SMILES string.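 Cells were grown in 96-well plates and exposed to each compound for 48 hours at five concentrations; endpoints were interpolated linearly between bracketing concentrations, or set to the highest concentration if not reached. At the GI50, growth is halved. TGI marks complete inhibition of growth.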 A value given as a limit tells only on which side of the number the result lay.

Data on 8 molecules can be found in PubChem BioAssay (NCI).

Some test systems named below: MOLT-4 leukemia; HCT-15 colon; MCF7 breast; NCI-H226 lung; A498 renal; SF-539 CNS; SF-295 CNS; M14 melanoma; MDA-MB-231 breast; NCI-H23 lung.
Common to all, as to assay: NCI anticancer screen, dose series, 48 h

Consider `CCCCCCCCCCN1CCC(N2CCCCC2)CC1`, for which the GI50 is 2090 nM in the assay on MOLT-4 leukemia; 1380 nM in the assay on HCT-15 colon; 1540 nM with MCF7 breast; 7.55 µM in the assay on NCI-H226 lung; 9.27 µM in the assay with A498 renal; 1480 nM with SF-539 CNS. The GI50 with SF-295 CNS was 1960 nM; in the assay with M14 melanoma, 1720 nM; in the assay on MDA-MB-231 breast, 1.3 µM; in the assay with NCI-H23 lung, 3350 nM. For the same molecule, the TGI in the assay with MOLT-4 leukemia stood at 6.65 µM; with HCT-15 colon it was 3.73 µM; in the assay on MCF7 breast, 3.64 µM; with NCI-H226 lung, 23.4 µM; in the assay with A498 renal it was 21.7 µM; with SF-539 CNS, 2.88 µM. Besides, the TGI in the assay with SF-295 CNS worked out at 4.2 µM; in the assay with MDA-MB-231 breast, 3.26 µM; with NCI-H23 lung, 14.5 µM.

Take `C/C(=N\NC(=S)N1CC2CCC(CC2)C1)c1ccccn1`: the GI50 was 59.8 nM in the assay on MOLT-4 leukemia; 31.3 nM in the assay on HCT-15 colon; under 14.5 nM with MCF7 breast; 0.394 µM with NCI-H226 lung; 0.416 µM in the assay on A498 renal; 257 nM with SF-539 CNS. For the same molecule, the GI50 was 178 nM in the assay with SF-295 CNS, 43.1 nM in the assay with M14 melanoma, 0.156 µM in the assay with MDA-MB-231 breast and 17.9 nM in the assay with NCI-H23 lung. Besides, the TGI with MOLT-4 leukemia came to 3.74 µM; in the assay on HCT-15 colon, 2.51 µM; in the assay with MCF7 breast, 1.44 µM; in the assay on NCI-H226 lung, 1.91 µM; in the assay on A498 renal, 1.91 µM; with SF-539 CNS, 2.34 µM. Moreover, the TGI in the assay on SF-295 CNS was 2.08 µM; with M14 melanoma, 1.21 µM; in the assay with MDA-MB-231 breast, 2.45 µM; in the assay with NCI-H23 lung it was 3.34 µM.

Take `O=C(NCc1ccc(S(=O)(=O)c2cc(F)cc(F)c2)cc1)c1ccc2nccn2c1`: the GI50 is over 27200 nM in the assay on MOLT-4 leukemia; 47.2 nM with HCT-15 colon; 8690 nM in the assay with MCF7 breast; over 46 µM with NCI-H226 lung; over 28.4 µM with A498 renal; under 10 nM in the assay on SF-539 CNS. The GI50 in the assay on SF-295 CNS was 15800 nM; in the assay with M14 melanoma it was under 10.8 nM; in the assay on MDA-MB-231 breast, 20 µM; in the assay with NCI-H23 lung, over 48700 nM. Besides, the TGI with MOLT-4 leukemia is over 100 µM; in the assay on HCT-15 colon it was over 100 µM; in the assay with MCF7 breast it was over 100 µM; in the assay on NCI-H226 lung it was over 73.9 µM; in the assay with A498 renal, over 86.8 µM; in the assay on SF-539 CNS, over 42.9 µM. The TGI is over 95.3 µM in the assay on SF-295 CNS, over 100 µM in the assay with M14 melanoma, over 100 µM with MDA-MB-231 breast and over 100 µM with NCI-H23 lung.

Turning to `COc1ccc2c(c1)C(C)Cc1c(ncnc1-n1cnc3cc(C)ccc31)N2C` (stereo unspecified), the GI50 was 247 nM with MOLT-4 leukemia; 207 nM with HCT-15 colon; 37.9 nM with MCF7 breast; 0.157 µM in the assay with NCI-H226 lung; 0.0255 µM in the assay on A498 renal; 31.7 nM in the assay on SF-295 CNS. For the same molecule, the values for the GI50 with M14 melanoma, in the assay with MDA-MB-231 breast and with NCI-H23 lung were 67 nM, 0.229 µM and 400 nM, respectively. The TGI in the assay on MOLT-4 leukemia came out at 12.9 µM; in the assay with HCT-15 colon, 12.9 µM; in the assay with MCF7 breast, 12.7 µM; in the assay with NCI-H226 lung, 16.3 µM; in the assay on A498 renal it was 0.0889 µM; in the assay on SF-295 CNS, 11 µM. Further, the TGI is 13.6 µM in the assay with M14 melanoma, 18.6 µM in the assay on MDA-MB-231 breast and 23.4 µM in the assay with NCI-H23 lung.

Regarding `CCN(CC)c1cc2oc3cc(N)cc(=N)c-3nc2cc1C`, the GI50 in the assay with HCT-15 colon was 3140 nM; with MCF7 breast, 1860 nM; with NCI-H226 lung, 3.39 µM; in the assay on A498 renal, 16.3 µM; in the assay on SF-539 CNS, 3440 nM; in the assay on SF-295 CNS, 1850 nM. Besides, the figures for the GI50 in the assay with M14 melanoma, in the assay with MDA-MB-231 breast and with NCI-H23 lung were 2250 nM, 6.04 µM and 2110 nM, respectively. For the same molecule, the TGI is over 100 µM with HCT-15 colon; 4.49 µM in the assay with MCF7 breast; 42.8 µM in the assay with NCI-H226 lung; 74.7 µM in the assay with A498 renal; 14.2 µM in the assay with SF-539 CNS; 5.19 µM in the assay on SF-295 CNS. Further, the TGI in the assay with M14 melanoma was 4.92 µM; in the assay on MDA-MB-231 breast, over 100 µM; in the assay with NCI-H23 lung, 17.9 µM.

Regarding `O=C(O)C12CC3(C(=O)O)CC(C(=O)O)(CC(C(=O)O)(C1)C3=O)C2=O`, the TGI in the assay on MOLT-4 leukemia, in the assay with HCT-15 colon, in the assay on MCF7 breast, with NCI-H226 lung, in the assay on A498 renal and with SF-295 CNS was over 100 µM each time. Further, the TGI in the assay with M14 melanoma, in the assay on MDA-MB-231 breast and in the assay on NCI-H23 lung was over 100 µM each time.

Consider `CCC(=O)Nc1ccc(N=NN(C)C)cc1`, for which the TGI with MOLT-4 leukemia was 43.4 µM; in the assay with HCT-15 colon, over 100 µM; in the assay with MCF7 breast, over 100 µM; with NCI-H226 lung, over 100 µM; with A498 renal, over 100 µM; with SF-539 CNS, over 100 µM. The TGI in the assay on M14 melanoma, with MDA-MB-231 breast and with NCI-H23 lung was over 100 µM in each case.

As to `O=C(NO)c1ccc(CN(c2cnccn2)c2cnccn2)cc1`, the GI50 in the assay with MOLT-4 leukemia is 17700 nM; with HCT-15 colon, 18500 nM; in the assay on MCF7 breast, 12100 nM; with NCI-H226 lung it was 20 µM; with A498 renal, 10.3 µM; in the assay on SF-539 CNS it was 14100 nM. The GI50 with SF-295 CNS is 14800 nM; in the assay on M14 melanoma it was 11100 nM; with MDA-MB-231 breast, 22.3 µM. Moreover, the TGI in the assay on MOLT-4 leukemia is over 100 µM; in the assay on HCT-15 colon, 46.8 µM; with MCF7 breast, over 100 µM; with NCI-H226 lung, 65.7 µM; in the assay with A498 renal, 28.3 µM; with SF-539 CNS it was 34.6 µM. Besides, the TGI in the assay on SF-295 CNS worked out at 33.4 µM; with M14 melanoma, 28.3 µM; with MDA-MB-231 breast, 63.4 µM.
